{
  "source": "paper PMC11404609",
  "about": "“Gut microbiota-mediated C-sulfonate metabolism impairs the bioavailability and anti-cholestatic efficacy of andrographolide” (Gut Microbes, 2024)",
  "key": {"gut microbiota": {"tested_on": "gut microbiota", "test": "Shotgun metagenomic sequencing of cecum samples after AP treatment", "type": "in vivo", "conditions": "mice cecum, AP 400 mg/kg, oral, 14 d", "method": "Shotgun metagenomic sequencing was performed using cecum samples from mice after AP treatment (400 mg/kg, oral, 14 d). DNA was extracted by a PF Mag-Bind DNA Kit (Omega Bio-tek, USA) and qualified by 1% Agarose gel electrophoresis. Extracted DNA was fragmented by Covaris M220 (Gene Company Limited, China) and screened at approximately 400 bp fragments for paired-end library construction. NEXTFLEX® Rapid DNA-Seq (Bioo Scientific, USA) was used to build paired-end library construction. The Illumina NovaSeq 6000 (Illumina, USA) sequencing platform was used for metagenomic sequencing. Fastp was used to perform quality cropping on the adapter sequences of the 3’ and 5’ ends of reads, preserving high-quality paired-end reads and single-end reads. BWA (version 0.7.17) was used to construct the reads with the host DNA sequence and remove contaminated reads with high alignment similarity. MEGAHIT (version 1.1.2) was used to splice and assemble the optimized sequence. SOAP aligner (version soap2.21release) was used to compare the high-quality reads of each sample with the non-redundant gene set (95% identity) and calculate the abundance information of genes in the corresponding samples. DIAMOND (version 2.0.11) was used to annotate species taxonomy, and KEGG function. Data was deposited into the NCBI Sequence Read Archive (SRA) database."}, "SULTs": {"tested_on": "SULTs", "test": "AP incubation with liver S9 fraction (SULT-mediated metabolism)", "type": "in vitro ADME, human, rat, mouse", "conditions": "HLS9, RLS9, MLS9 with PAPS, 37°C", "method": "A sulfonate reaction system and incubation procedures were followed those of a previous study^4. Briefly, the reaction mixture (total volume 200 μL) consists of 10 μL enzymes (MLS9, RLS9 and HLS9 at different concentrations), 5 μL magnesium chloride (1 mM), 5 μL 3’-phosphoadenosine-5’-phosphosulfate (PAPS, 0.05 mM), 178 μL potassium phosphate (KPI) buffer (44.5 mM, pH 7.4) and 2 μL AP at different concentrations. The mixture was prepared in triplicates and incubated in a shaking water bath at 37°C for various durations. The reactions were terminated by the addition of acetonitrile solution."}, "[1]": {"tested_on": "FXR downstream bile acid transporters", "test": "Expression of FXR downstream bile acid transporters in liver (qPCR, Western blot)", "type": "in vivo, mice", "conditions": "AP 200 mg/kg i.p.", "method": "Total RNA from frozen livers of Vehicle, AP (200 mg/kg, i.p.), ANIT (50 mg/kg), and ANIT+AP (200 mg/kg, i.p.) groups was extracted using the Animal Total RNA Isolation Kit (FOREGENE, China). cDNA was synthesized using a Color Reverse Transcription Kit (EZBioscience, Roseville, CA, USA). qPCR was performed using SYBR green/Rox qPCR master mix (EZBioscience, Roseville, CA, USA), according to the manufacturer’s instruction. The expression of target genes was normalized to β-actin, and fold changes were calculated using 2^–ΔΔCT method. For bacterial identification, genomic DNA of fecal flora was isolated using the TIANamp Stool DNA Kit (TIANGEN, Beijing, China) and qPCR was performed. The relative abundance and expression of Desulfovibrio spp., D. piger and APS reductase were normalized to the amounts of total bacteria (16S). All primers were synthesized by Tsingke Biotechnology Co., Ltd. (Beijing, China) and were listed in Supplementary Table S1.\nLiver tissue from Vehicle, AP (200 mg/kg, i.p.), ANIT (50 mg/kg), and ANIT+AP (200 mg/kg, i.p.) groups was homogenized in RIPA buffer (Thermo Scientific). […] The collected supernatant was quantified using BCA protein assay kit (Epizyme). […] To visualize the protein bands, the membrane was reacted with Immobilon Forte Western HRP (Millipore) substrate solution for 2 min and analyzed using Tanon5200 imager. […]"}, "intestinal flora of mice": {"tested_on": "intestinal flora of mice", "test": "Co-culturing AP with cecum samples from mice", "type": "in vitro ADME", "conditions": "AP 10 μg/mL, anaerobic, 37°C, 6 h", "method": "(§1) The cecum contents from mice were collected and mixed with sterilized anaerobic medium in a ratio of 1.0 g to 10 mL, with gentle agitation. After filtered, the mixed medium containing the intestinal flora was placed in an anaerobic environment and preincubated at 37°C for 30 min before use. Mixed medium with or without APS reductase inhibitor bromocriptine mesylate (20 μg/mL) was incubated with AP (10 μg/mL), while autoclaved mixed medium without APS reductase inhibitor served as the control. Incubation was performed in a shaking incubator at 37°C for 6 h, with strict maintenance of anaerobic condition throughout the process.[44] Similarly, D. piger (0.2 mL, 1 × 10^8 CFU/mL) with or without inhibitor, was incubated with AP for 0, 3, 6, and 12 h, with autoclaved D. piger without inhibitor serving as the control. The reaction was terminated by adding cold methanol contained IS. And then samples were analyzed by UPLC-MS/MS to detect the concentrations of AP and APM. Concentrations of APS reductase and HSO3^− were also determined at the end of incubation.\nFor the determination of APS reductase concentration, the supernatant from mouse cecum contents and the D. piger strain were assessed using microorganism APS reductase elisa assay kit (Shanghai Senxingyan Biotechnology Co., Ltd., China), following the instructions provided with the kit. For the determination of HSO3^− concentration, cecum contents from mice or rats were weighed and homogenized in five volumes of normal saline (based on tissue weight). The homogenate was then subjected to centrifugation at 13,000 rpm and 4°C for 15 min. The supernatant (or perfusate) was collected and mixed with 0.2% formaldehyde, 0.05% basic fuchsin, and 0.01% EDTA-Na2 in a ratio of 1:1:1:9 under acidic conditions. To establish a standard curve, different concentrations of NaHSO3 were used. Subsequently, the absorbance of the resulting solutions was measured at a wavelength of 560 nm after 40 min."}, "D. piger": {"tested_on": "D. piger", "type": "in vitro ADME, Desulfovibrio piger", "method": "as §1, with “The reaction was terminated by adding cold methanol contained IS.” left out\nFor the determination of APS reductase concentration, the supernatant from mouse cecum contents and the D. piger strain were assessed using microorganism APS reductase elisa assay kit (Shanghai Senxingyan Biotechnology Co., Ltd., China), following the instructions provided with the kit. […] Subsequently, the absorbance of the resulting solutions was measured at a wavelength of 560 nm after 40 min."}},
  "data": [
    {"smiles": "C=C1CC[C@@H]2[C@](C)(CO)[C@H](O)CC[C@@]2(C)[C@@H]1C/C=C1/C(=O)OC[C@H]1O", "note": "[AP, Andrographolide]", "values": [
      {"measurement": "expression of APS reductase / growth of APS reductase-producing gut microbiota", "setting": "gut microbiota", "value": "did not induce significant alterations"},
      {"measurement": "expression of Enterococcus, Lactobacillus, and Escherichia bacteria", "setting": "gut microbiota", "value": "did not suppress"},
      {"measurement": "production of the metabolite APM in SULT-mediated metabolism incubation system", "setting": "SULTs", "value": "absence of detectable production"},
      {"measurement": "expression of FXR downstream bile acid transporters (Mrp2, Mrp3, Mrp4, Oatp1, and Ntcp, except for Bsep, Ost-α and Ost-β)", "setting": "[1]", "value": "heightened the expression"},
      {"measurement": "conversion of AP into APM by the intestinal flora", "setting": "intestinal flora of mice", "value": "notable conversion"},
      {"measurement": "metabolism of AP into APM by D. piger in vitro", "setting": "D. piger", "value": "time-dependent ability to metabolize AP into APM"}
    ]}
  ]
}
